Results: PubChem BioAssay (NCI)
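Tested at 5 concentrations; 48 h exposure; 96-well plates; endpoints linearly interpolated, else capped at highest concentration. Here, GI50 denotes the concentration required for 50% inhibition of growth. TGI: total growth inhibition.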

Key:
Test in all cases: inhibition of tumour cell growth, NCI panel, 48 h
A498 renal = test system: A498 renal
CCRF-CEM leukemia = test system: CCRF-CEM leukemia
HOP-92 NSCLC = test system: HOP-92 NSCLC
NCI-H23 lung = test system: NCI-H23 lung
NCI-H460 lung = test system: NCI-H460 lung
RXF 393 renal = test system: RXF 393 renal
SF-268 CNS = test system: SF-268 CNS
SF-295 CNS = test system: SF-295 CNS
SK-MEL-5 melanoma = test system: SK-MEL-5 melanoma
UACC-257 melanoma = test system: UACC-257 melanoma

Compound | GI50 (A498 renal) [µM] | TGI (A498 renal) [µM] | GI50 (CCRF-CEM leukemia) [µM] | TGI (CCRF-CEM leukemia) [µM] | GI50 (HOP-92 NSCLC) [µM] | TGI (HOP-92 NSCLC) [µM] | GI50 (NCI-H23 lung) [µM] | TGI (NCI-H23 lung) [µM] | GI50 (NCI-H460 lung) [µM] | TGI (NCI-H460 lung) [µM] | GI50 (RXF 393 renal) [µM] | TGI (RXF 393 renal) [µM] | GI50 (SF-268 CNS) [µM] | TGI (SF-268 CNS) [µM] | GI50 (SF-295 CNS) [µM] | TGI (SF-295 CNS) [µM] | GI50 (SK-MEL-5 melanoma) [µM] | TGI (SK-MEL-5 melanoma) [µM] | GI50 (UACC-257 melanoma) [µM] | TGI (UACC-257 melanoma) [µM]
Cc1cc2nc3c4cc(O)ccc4n(CCN(C)C)c3nc2cc1C | 0.403 | 2.04 | 0.518 | 6 | 0.287 | 2.62 | 0.833 | 3.35 | 0.468 | 1.99 | 0.828 | 2.47 | 1.25 | 5.89 | 0.573 | 2.49 | 1.59 | 2.97 | 2.06 | 5.2
CC1=Nc2ccccc2S/C1=C(/C)NNS(=O)(=O)c1ccc(C)cc1 | – | > 100 | – | 86.7 | – | > 100 | – | > 100 | – | > 100 | – | > 100 | – | > 100 | – | > 100 | – | > 100 | – | > 100
Cn1c2c(c3ccccc31)CCN(CCCCN1CCCCC1)C2=O | – | > 100 | – | > 100 | – | > 100 | – | > 100 | – | > 100 | – | > 100 | – | > 100 | – | > 100 | – | > 100 | – | > 100
COc1ccc2c(c1OC)C[C@@H]1c3c(cc4c(c3-2)OCO4)CCN1C | – | 63.5 | – | 51.6 | – | 68.1 | – | > 100 | – | 91.4 | – | 66.4 | – | > 100 | – | 31.3 | – | 38.1 | – | 61
CCOC(=O)C1Cc2c(cc3c4c(cccc24)N(C(C)=O)C3)N(C)C1 (stereo not given) | – | > 100 | – | > 100 | – | 99.7 | – | > 100 | – | > 100 | – | 44.7 | – | > 100 | – | > 100 | – | > 100 | – | > 100
CC(C)c1[nH]nc(C(N)=O)c1N=NN(C)C | – | > 100 | – | > 100 | – | > 100 | – | > 100 | – | > 100 | – | > 100 | – | > 100 | – | > 100 | – | > 100 | – | > 100
CN1c2ccccc2N(C(=O)c2ccc([N+](=O)[O-])cc2)C(CC(=O)O)c2cccn21 (stereo not given) | – | > 100 | – | > 100 | – | > 100 | – | > 100 | – | > 100 | – | > 100 | – | > 100 | – | > 100 | – | > 100 | – | > 100
COc1ccc(/C=C/C(=O)c2cc(OC)c(OC)c(OC)c2)cc1OCC(=O)Nc1nc2ccc(OC(F)(F)F)cc2s1 | 7.4 | 31.7 | 2.5 | > 100 | 2.14 | 7.32 | 2.15 | 6.2 | 2.43 | 6.25 | 1.58 | 3.74 | 1.2 | 8.5 | 2.21 | 6.09 | 2.03 | 10.5 | 8.08 | > 100
C=C1CC[C@@H]2[C@](C)(COC(C)=O)[C@H](OC(C)=O)CC[C@@]2(C)[C@@H]1CC(Nc1ccc(S(=O)(=O)NC(C)=O)cc1)C1=CCOC1=O (stereo not given in full) | 10.3 | 20.1 | 1.93 | 6.26 | 6.5 | 15.8 | 5.52 | 17.4 | 6.72 | 17.9 | 1.96 | 4.69 | 8.78 | 20.5 | 11.5 | 22 | 3.22 | 11.5 | 6.82 | 16
CC(=O)O[C@H]1C(=O)[C@@]2(C)C(C(OC(=O)c3ccccc3)[C@]3(O)C[C@H](OC(=O)C(OC(=O)CCCC(=O)NCCCN(C)C)C(NC(=O)c4ccccc4)c4ccccc4)C(C)=C1C3(C)C)C1(OC(C)=O)COC1C[C@@H]2O (stereo not given in full) | – | 45.6 | – | 9.58 | – | 37.2 | – | 18.2 | – | 8.71 | – | 3.27 | – | 75.3 | – | 1.28 | – | 18.6 | – | 33.5
C[C@@H](NC1CCCC[C@H]1O)c1ccccc1 (stereo not given in full) | – | > 100 | – | > 100 | – | > 100 | – | > 100 | – | > 100 | – | > 100 | – | > 100 | – | > 100 | – | > 100 | – | > 100
CCC(C)[C@H]1O[C@]2(CC[C@@H]1C)C[C@@H]1C[C@@H](C/C=C(\C)[C@@H](OC3C[C@H](OC)C(O[C@H]4C[C@H](OC)[C@@H](O)[C@H](C)O4)[C@H](C)O3)[C@@H](C)/C=C/C=C3\CO[C@@H]4[C@H](O)C(C)=C[C@@H](C(=O)O1)[C@]34O)O2 (stereo not given in full) | 1.79 | 7.72 | 4 | 21.2 | 1.98 | 8.18 | 3.21 | 13.7 | 2.91 | 10.6 | 1.37 | 2.81 | 4.14 | 15.6 | 2.54 | 10.9 | 1.49 | 2.82 | 2.17 | 6.25
